# Assay results: patent publication US20110129542A1, “SUBSTITUTED AZEPINE- AND DIAZEPINE-SULFONAMIDES USEFUL TO INHIBIT 11BETA-HYDROXYSTEROID DEHYDROGENASE TYPE-1” (Schering Corporation, priority 2007, published 2011)
# Experiments:
# [1] = molecular target: Mouse 11-β-HSD1 (Mus musculus, UniProt P50172); assay: Measurement of 11β-HSD1 activity (SPA, 3H-cortisone, membrane), mouse enzyme; format: biochemical; details: 125 nM 3H-cortisone, 3 mM NADPH, 0.5 μg membrane, room temperature 1 hr
# Description: (§1) Measurement of 11β-HSD1 activity
# (§2) The reaction was incubated at room temperature for 1 hr before it was stopped by addition of […] containing 20 mM NaPO4 pH 7.5, 30 μM 18β-glycyrrhetinic acid, 1 μg/ml monoclonal anti-cortisol antibody (Biosource) and 2 mg/ml anti-mouse antibody coated scintillation proximity assay (SPA) beads (Amersham Bioscience). The mixture was incubated at room temperature for 2 hrs with vigorous shaking and analyzed on TopCount scintillation counter.
# [2] = molecular target: Human 11-β-HSD1 (Homo sapiens, UniProt P28845); assay: Measurement of 11β-HSD1 activity (SPA, 3H-cortisone, membrane), human enzyme; format: biochemical; details: 125 nM 3H-cortisone, 3 mM NADPH, 0.5 μg membrane, room temperature 1 hr
# Sequence of Human 11-β-HSD1 (P28845 whole entry): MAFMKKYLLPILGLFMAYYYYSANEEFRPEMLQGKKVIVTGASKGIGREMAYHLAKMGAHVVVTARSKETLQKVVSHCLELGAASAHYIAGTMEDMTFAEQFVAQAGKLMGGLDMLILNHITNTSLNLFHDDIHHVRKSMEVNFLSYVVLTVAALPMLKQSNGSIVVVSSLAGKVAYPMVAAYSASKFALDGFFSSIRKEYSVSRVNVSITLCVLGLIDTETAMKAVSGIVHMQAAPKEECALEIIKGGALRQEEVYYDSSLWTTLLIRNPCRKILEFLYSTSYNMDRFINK
# Description: as §1, §2
# Sequence of Mouse 11-β-HSD1 (P50172 whole entry): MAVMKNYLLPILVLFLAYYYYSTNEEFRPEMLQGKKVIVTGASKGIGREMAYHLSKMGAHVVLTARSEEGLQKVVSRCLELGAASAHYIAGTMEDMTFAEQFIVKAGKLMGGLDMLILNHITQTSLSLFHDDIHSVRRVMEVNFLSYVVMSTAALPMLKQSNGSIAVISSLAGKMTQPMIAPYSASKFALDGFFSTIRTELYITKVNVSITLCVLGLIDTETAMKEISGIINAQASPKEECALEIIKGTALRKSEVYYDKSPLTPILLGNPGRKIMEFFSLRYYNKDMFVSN
SMILES,IC50 [1] [nM],IC50 [2] [nM]
CC(C)(C)c1ccc(S(=O)(=O)N2CCCC(O)CC2)cc1 (centres unmarked) [Compound 11],629,466
COC1CCCN(S(=O)(=O)c2ccc(C(C)(C)C)cc2)CC1 (centres unmarked) [Compound 12],165,7
COC1(C)CCCN(S(=O)(=O)c2ccc(C(C)(C)C)cc2)CC1 (centres unmarked) [Compound 18],57,3
CC(=O)c1ccc(S(=O)(=O)N2CCCC(C)(O)CC2)cc1 (centres unmarked) [Compound 29],> 10000,5250
CC(C)(C)c1ccc(S(=O)(=O)N2CCCN(C3CCCC3)CC2)cc1 [Compound 43],263,30
CC(=O)N1CCCN(S(=O)(=O)c2ccc(C(C)(C)C)cc2)CC1 [Compound 44],2540,254
CC(C)(C)c1ccc(S(=O)(=O)N2CCCNCC2)cc1 [Compound 45],2300,3740
CC(C)(C)OC(=O)N1CCCN(S(=O)(=O)c2ccc(C(C)(C)C)cc2)CC1 [Compound 46],2760,256
CC(C)(C)c1ccc(S(=O)(=O)N2CCCN(C3CC4CCC3C4)CC2)cc1 (centres unmarked) [Compound 47],102,19

# The next lines start with the values.
IC50 [1] [nM],IC50 [2] [nM],SMILES
1980,1320,COc1ccc(S(=O)(=O)N2CCCC(O)(c3ccccc3)CC2)cc1 (centres unmarked) [Compound 1]
2720,1070,O=S(=O)(c1ccc(Cl)cc1)N1CCCC(O)(c2ccccc2)CC1 (centres unmarked) [Compound 6]
1880,58,COc1ccc(S(=O)(=O)N2CCC=C(c3ccccc3)CC2)cc1 [Compound 34]
1550,178,COc1ccc(S(=O)(=O)N2CC=C(c3ccccc3)CCC2)cc1 [Compound 40]
